Laboratory results: patent US6900202B2, “Di-substituted imineheterocyclic compounds” (priority 2000, dated 2005)

Legend:
[1] = molecular target: T1, α4β2 subtype of nicotinic acetylcholine receptors (Rattus norvegicus, UniProt P09483+P12390); assay: Binding assay at α4β2 subtype of nicotinic acetylcholine receptors ([3H]-cytisine, rat brain membrane); details: for control % of [3H]-cytisine binding at 1 μM of test compound: 1 μM test compound; for control % of [3H]-cytisine binding at 1 μM of test compound / control % of [3H]-cytisine binding at 10 μM of test compound: % of control binding remaining; for control % of [3H]-cytisine binding at 10 μM of test compound: 10 μM test compound
T1 construct: examined using rat brain membrane obtained from whole homogenized brain; from tissue; host or cells: whole brain membranes of Fischer-344 male rats
Source text: (§1) The methods for evaluating the binding capabilities of the compounds against nicotinic acetylcholine receptors are different by subtypes of receptors. The binding capabilities of the compounds at α4β2 nicotinic acetylcholine receptors are examined using rat brain membrane obtained from whole homogenized brain, and determining the inhibiting rate of the compounds against [^3H]-cytisine binding to said brain membrane. Furthermore, the binding capabilities of the compounds at α1β1γδ nicotinic acetylcholine receptors are examined using homogenized rat muscle, and determining the inhibiting rate of the compounds against [^3H]-α-bungarotoxin binding to said muscle membrane.
Binding Assays at α4β2 Subtype of Nicotinic Acetylcholine Receptors
The affinity of the compounds of the present invention to α4β2 subunit of nicotinic acetylcholine receptors was performed by the following method, which was modified method described by Pabreza L. A., Dhawan S. & Kellar K. J., Mol. Pharm., 39, 9-12 (1990), and by Anderson D. J. & Arneric S. P., Eur. J. Pharm., 253, 261-267 (1994).
(1) Preparation of Rat Brain Membrane Containing α4β2 subtype of Nicotinic Acetylcholine Receptors
Fischer-344 strain male rats (body weight: 200-240 g; 9 weeks old) obtained from Charles River Japan were used. Rats were housed in the breeding cage controlled of the room temperature at 23±1° C., and the humidity of 55±5% for 1 to 4 weeks. Rats (3 to 4 rats per a cage) were housed with lights on for 12 hours daily (from 7:00 to 19:00), and allowed free access to food and water.
Preparation of rat brain membrane containing α4β2 subtype of nicotinic acetylcholine receptors was performed as follow. That is, rat brains were isolated just after sacrificed by decapitation, washed with ice-cooled saline solution and then frozen at −80° C. with liquid nitrogen and stored till using. After thawing the frozen brain, the brain was homogenized in 10 volumes of buffer solution (50 mM of Tris-HCl, 120 mM of NaCl, 5 mM of KCl, 1 mM of MgCl2, 2mM of CaCl2; pH 7.4; 4° C.) using homogenizer (HG30, Hitachi Kohki Ltd.) for 30 seconds, and the homogenate were centrifuged under 1,000×G for 10 minutes at 4° C. The resulting supernatant was separated and the pellet was homogenized again with half volume of aforementioned prior buffer solution and centrifuged under the same conditions. Combined supernatant was further centrifuged under 40,000×G for 20 minutes at 4° C. The pellet was suspended in buffer solution and used for binding assays at receptors.
(2) Experiments of α4β2 Subtype of Nicotinic Acetylcholine Receptors Binding
Suspensions of membrane pellets containing 400-600 μg of protein were added to test tubes containing test compounds and [^3H]-cytisine (2 nM) in a final volume of 200 μl and incubated for 75 minutes in ice-cooled bath. The samples were isolated by vacuum filtration onto Whatman GF/B filters, which were prerinsed with 0.5% polyethylenimine just prior to sample filtration, using Brandel multi manifold cell harvester. The filters were rapidly washed with buffer solution (3×1 ml). The filters were counted in 3 ml of clearsol I (Nacalai Tesque Inc.).
The analyses of the experimental results were conducted by using the Accufit Competition Program (Beckman Ltd.).

[2] = molecular target: T2, α1β1γδ subtype of nicotinic acetylcholine receptors (Rattus norvegicus, UniProt P25108); assay: biochemical; type: binding; details: % of control binding remaining; for control % of [3H]-α-Bgt binding at 100 μM of test compound: 100 μM test compound; for control % of [3H]-α-Bgt binding at 1,000 μM of test compound: 1,000 μM test compound
T2 construct: The centrifugation at 100,000×G for 60 minutes at 4° C. yielded the rat muscle extract as supernatant
Source text: as §1
Binding Assays at α1β1γδ Subtype of Nicotinic Acetylcholine Receptors
The affinity of the compounds of the present invention to α1β1γδ subtype of nicotinic acetylcholine receptors was measured by the following method, which was modified method described by Garcha H. S., Thomas P., Spivak C.
(1) Preparation of Rat Skeletal Muscles Containing α1β1γδ Subtype of Nicotinic Acetylcholine Receptors
The substantially same animals described in the Biological Experiment 1 were used.
The isolation of α1β1γδ subtype of nicotinic acetylcholine receptors was performed as follow. That is, rat posterior skeletal muscles were isolated just after sacrificed by decapitation, washed with ice-cooled saline solution and then frozen at −80° C. with liquid nitrogen and stored till using. After thawing the frozen muscles, tissue was homogenized (40% w/v) with buffer solution [2.5 mM of sodium phosphate buffer (pH:7.2), 90 mM of NaCl, 2 mM of KCl, 1 mM of EDTA, 2 mM of benzamidine, 0.1 mM of benzethonium chloride, 0.1 mM of PMSF, 0.01% of sodium azide] in Waring blender [Waring blender 34BL97; WARING PRODUCTS DIVISION DYNAMICS CORPORATION OF AMERICA) for 60 seconds. The homogenate were centrifuged under 20,000×G for 60 minutes at 4° C. The supernatant was separated and the resulting pellet was added to the same buffer (1.5 ml/g wet weight), and homogenized under the same conditions. Triton X100 (2% w/v) was added and the mixture was stirred for 3 hours at 4° C. The centrifugation at 100,000×G for 60 minutes at 4° C. yielded the rat muscle extract as supernatant. This was stored at 4° C. for up to 4 weeks, and used for binding assays at receptors.
(2) Experiments of α1β1γδ Subtype of Nicotinic Acetylcholine Receptors Binding
Receptors binding experiments were performed as follow. That is, the extract of rat muscle containing 600-900 μg of protein was added to test tubes containing test compounds and incubated for 15 minutes at 37° C. Then, to this mixture was added 1 nM of [^3H]-α-bungarotoxin (α-Bgt) and further incubated for 2 hours. The samples were isolated by vacuum filtration onto Whatman GF/B filters, which were prerinsed with 0.5% polyethylenimine just prior to sample filtration, using Brandel multi manifold cell harvester. The filters were rapidly rinsed with washing solution (10 mM of KH2PO4, 150 mM of NaCl, pH 7.2, room temperature) (5×1 ml). The filters were counted in 3 ml of clearsol I (Nacalai Tesque Inc.). The determination of nonspecific binding was incubated in the presence of 1 μM α-Bgt. […] In the receptor binding experiments, said buffer solution was added for adjusting the final concentration of BSA to be 0.05%.
The analyses of the experimental results were conducted by as described in the Biological Experiment 1.

T1 sequence (P09483 31-630): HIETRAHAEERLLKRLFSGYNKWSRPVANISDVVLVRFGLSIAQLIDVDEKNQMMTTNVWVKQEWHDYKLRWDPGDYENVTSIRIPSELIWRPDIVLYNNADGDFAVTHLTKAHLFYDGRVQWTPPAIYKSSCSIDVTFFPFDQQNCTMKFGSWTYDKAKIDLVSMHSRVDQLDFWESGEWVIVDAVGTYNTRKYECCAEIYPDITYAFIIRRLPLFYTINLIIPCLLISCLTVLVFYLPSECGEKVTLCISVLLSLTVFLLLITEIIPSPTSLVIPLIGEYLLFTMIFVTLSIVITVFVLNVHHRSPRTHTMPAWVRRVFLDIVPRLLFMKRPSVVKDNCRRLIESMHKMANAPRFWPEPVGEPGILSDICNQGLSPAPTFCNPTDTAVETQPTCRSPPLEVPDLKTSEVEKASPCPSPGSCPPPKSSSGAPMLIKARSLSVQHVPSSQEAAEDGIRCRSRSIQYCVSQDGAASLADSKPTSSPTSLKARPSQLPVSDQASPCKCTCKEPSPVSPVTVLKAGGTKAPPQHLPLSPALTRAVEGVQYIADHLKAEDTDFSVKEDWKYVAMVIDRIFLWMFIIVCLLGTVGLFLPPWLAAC
T1 sequence (P12390 25-500): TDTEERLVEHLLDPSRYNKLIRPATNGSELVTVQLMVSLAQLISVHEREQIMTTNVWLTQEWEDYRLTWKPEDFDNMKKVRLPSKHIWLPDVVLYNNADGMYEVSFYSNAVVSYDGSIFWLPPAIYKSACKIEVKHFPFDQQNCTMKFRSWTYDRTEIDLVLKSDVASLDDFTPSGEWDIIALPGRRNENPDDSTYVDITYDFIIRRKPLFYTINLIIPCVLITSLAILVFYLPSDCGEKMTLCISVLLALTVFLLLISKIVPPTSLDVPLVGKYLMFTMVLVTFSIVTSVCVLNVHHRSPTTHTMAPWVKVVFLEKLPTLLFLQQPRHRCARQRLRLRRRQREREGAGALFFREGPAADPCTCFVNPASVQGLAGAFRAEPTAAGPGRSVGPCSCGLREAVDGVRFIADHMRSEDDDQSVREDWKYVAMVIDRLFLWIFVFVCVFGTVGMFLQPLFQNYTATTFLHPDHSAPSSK
T2 sequence (P25108 21-457): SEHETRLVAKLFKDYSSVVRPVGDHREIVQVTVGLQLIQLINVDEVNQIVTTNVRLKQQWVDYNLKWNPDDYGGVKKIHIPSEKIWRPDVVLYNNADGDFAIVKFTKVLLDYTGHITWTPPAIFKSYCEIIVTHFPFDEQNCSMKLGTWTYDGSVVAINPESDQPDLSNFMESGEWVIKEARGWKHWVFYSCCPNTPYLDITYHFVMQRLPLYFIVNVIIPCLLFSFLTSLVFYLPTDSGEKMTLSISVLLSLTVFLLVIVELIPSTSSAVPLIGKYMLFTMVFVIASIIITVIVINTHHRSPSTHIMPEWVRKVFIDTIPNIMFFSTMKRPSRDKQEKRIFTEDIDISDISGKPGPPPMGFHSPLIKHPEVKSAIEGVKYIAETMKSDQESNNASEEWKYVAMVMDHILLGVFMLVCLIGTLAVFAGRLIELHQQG
T2 sequence (P25109 24-501, further chain): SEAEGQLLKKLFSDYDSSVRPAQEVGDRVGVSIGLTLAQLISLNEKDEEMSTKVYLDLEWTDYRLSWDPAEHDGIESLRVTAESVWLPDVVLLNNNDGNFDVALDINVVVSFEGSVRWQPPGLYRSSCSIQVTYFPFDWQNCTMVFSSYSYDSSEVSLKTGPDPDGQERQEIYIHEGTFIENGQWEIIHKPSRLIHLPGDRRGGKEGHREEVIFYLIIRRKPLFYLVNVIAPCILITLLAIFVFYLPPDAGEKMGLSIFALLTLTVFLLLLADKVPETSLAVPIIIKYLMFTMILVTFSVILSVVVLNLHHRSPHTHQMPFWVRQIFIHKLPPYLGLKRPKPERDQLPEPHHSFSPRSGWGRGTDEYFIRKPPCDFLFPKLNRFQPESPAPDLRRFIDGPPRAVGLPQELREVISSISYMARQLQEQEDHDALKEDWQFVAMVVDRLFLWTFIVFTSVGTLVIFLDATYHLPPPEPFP
T2 sequence (P25110 22-517, further chain): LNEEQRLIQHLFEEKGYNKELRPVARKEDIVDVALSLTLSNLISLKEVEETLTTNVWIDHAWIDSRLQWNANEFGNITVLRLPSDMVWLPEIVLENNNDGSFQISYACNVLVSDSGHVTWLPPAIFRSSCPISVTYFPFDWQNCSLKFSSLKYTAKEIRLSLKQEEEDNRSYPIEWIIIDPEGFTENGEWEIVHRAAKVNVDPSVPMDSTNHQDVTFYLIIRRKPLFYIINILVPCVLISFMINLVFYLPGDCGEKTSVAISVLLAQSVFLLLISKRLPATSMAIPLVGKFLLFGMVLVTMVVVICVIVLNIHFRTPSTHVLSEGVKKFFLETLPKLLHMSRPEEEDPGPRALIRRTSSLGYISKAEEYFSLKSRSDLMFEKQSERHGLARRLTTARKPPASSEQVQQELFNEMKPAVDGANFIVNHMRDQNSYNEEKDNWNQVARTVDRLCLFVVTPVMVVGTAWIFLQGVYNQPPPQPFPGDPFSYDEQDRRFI

SMILES | Ki [1] [nM] | control % of [3H]-α-Bgt binding at 100 μM of test compound [2] [%] | control % of [3H]-α-Bgt binding at 1,000 μM of test compound [2] [%] | control % of [3H]-cytisine binding at 1 μM of test compound [1] [%] | control % of [3H]-cytisine binding at 10 μM of test compound [1] [%]
Clc1ccc(C/N=C2\NCCCN2Cc2ccc(Cl)nc2)cn1 [Compound 3, 1-(6-chloro-3-pyridyl)methyl-[(6-chloro-3-pyridyl)methyl]imino-1,2,3,4,5,6-hexahydropyrimidine] | 739 | 77 | 76 | – | –
N=C1N(Cc2ccc(Cl)nc2)CCCN1Cc1ccc(Cl)nc1 [Compound 4, 1,3-bis[(6-chloro-3-pyridyl)methyl]-2-imino-1,2,3,4,5,6-hexahydropyrimidine] | 475 | 49 | 30 | – | –
Clc1ccc(C/N=c2\ncccn2Cc2ccc(Cl)nc2)cn1 [Compound 5, 1-(6-chloro-3-pyridyl)methyl-2-[(6-chloro-3-pyridyl)methyl]imino-1,2-dihydropyrimidine] | – | – | – | 92 | 23
Clc1cc/c(=N\Cc2ccc(Cl)nc2)n(Cc2ccc(Cl)nc2)c1 [Compound 6, 5-chloro-1-(6-chloro-3-pyridyl)methyl-2-[(6-chloro-3-pyridyl)methyl]imino-1,2-dihydropyridine] | – | – | – | 94 | 45
CC1CCC/C(=N\Cc2ccc(Cl)nc2)N1Cc1ccc(Cl)nc1 (stereo not shown) [Compound 7, 1-(6-chloro-3-pyridyl)methyl-2-[(6-chloro-3-pyridyl)methyl]imino-6-methylpiperidine] | – | 85 | 52 | 85 | 75
Cc1cs/c(=N\Cc2ccc(Cl)nc2)n1Cc1ccc(Cl)nc1 [Compound 9, 3-(6-Chloro-3-pyridyl)methyl-2-[(6-chloro-3-pyridyl)methyl]imino-4-methyl-2,3-dihydrothiazole] | 110 | 78 | 40 | – | –
N=c1n(Cc2ccc(Cl)nc2)ccn1Cc1ccc(Cl)nc1 [Compound 10, 1,3-bis[(6-chloro-3-pyridyl)methyl]-2-imino-2,3-dihydroimidazole] | – | – | – | 89 | 46
C/N=C1\SCCN1Cc1ccc(Cl)nc1 [Compound 11, 3-(6-chloro-3-pyridyl)methyl-2-methylimino-thiazolidine] | – | – | – | 93 | 18
Clc1ccc(Cn2ccs/c2=N\c2ccccc2)cn1 [Compound 12, 3-(6-Chloro-3-pyridyl)methyl-2-phenylimino-2,3-dihydrothiazole] | – | 86 | 48 | 109 | 84
Clc1ccc(CN2CCS/C2=N\Cc2ccccc2)cn1 [Compound 14, 2-Benzylimino-3-(6-chloro-3-pyridyl)methylthiazolidine] | 123 | 64 | 20 | – | –
